Measured values reported in article PMC3199943, “Screening the MayBridge Rule of 3 Fragment Library for Compounds That Interact with the Trypanosoma brucei myo-Inositol-3-Phosphate Synthase and/or Show Trypanocidal Activity” (Molecular Biology International, 2011).
Structures can show the parent of a compound that is named as a salt. Where two headings read alike, the source gives them in different places.

What was measured:
A549 cells = assay: Cytotoxicity against A549 cells, Alamar Blue; type: cell-based; conditions: Supplementary Table 1, compound 0.5 mM, percentage of controls (n=1); for viability at 500 µM: Homo sapiens, A549, 65 h
Procedure: (§1) Cytotoxic effects against HeLa and A549 cells were determined in a similar manner. Briefly, the cells were cultured in DMEM supplemented with 10% FCS and 2 mM L-Glutamine. Cells were plated at initial cell concentration of 2 × 10^4 cells/well and incubated with the compounds for ~65 hours prior to addition of Alamar Blue solution for a further 5 hours.

HeLa cells = assay: cells; conditions: for viability at 500 µM / CC50: Homo sapiens, HeLa; for viability at 500 µM: 65 h; for HeLa Cells Alamar Blue: Supplementary Table 1; for CC50: read-out: HeLa ED50
Procedure: as §1

[1] = read-out: HeLa Cells Alamar Blue
[2] = compound 0.5 mM, percentage of controls, mean ± SD (n=3) or SE (n=2)
[3] = read-out: HeLa Cells Alamar Blue, Supplementary Table 1, compound 0.5 mM, percentage of controls, mean ± SD (n=3) or SE (n=2)

Compound	viability at 500 µM (A549 cells) [%]	viability at 500 µM (HeLa cells; [1]) [%]	further results
N#Cc1ccc(-c2ccco2)nc1 [compound 344, 6‐(2‐furyl)nicotinonitrile]	104	48.9 ± 5	
O=C(O)c1ccc(C(F)(F)F)cc1 [compound 539, 4‐(trifluoromethyl)benzoic acid]	104	92.4 ± 8.2	
NC(=O)c1ccccc1N1CCCCC1 [compound 651, 2‐piperidinobenzamide]	93.1	82.4 ± 5.4	
COc1ccccc1C1CCNCC1 [compound 560, 4‐(2‐methoxyphenyl)piperidine]	63.7	20.2 ± 2.8	
COC(=O)c1cc2ccsc2[nH]1 [compound 463, methyl 6H‐thieno[2,3‐b]pyrrole‐5‐carboxylate]			A549 Cells Alamar Blue (A549 cells): 59.7 percentage of controls; HeLa Cells Alamar Blue (HeLa cells; [2]): 101.3 ± 11 percentage of controls
Nc1ccc(C(F)(F)F)cc1 [compound 270, 4‐(trifluoromethyl)aniline]	104	21.8 ± 14.5	CC50 (HeLa cells): 206 ± 13 µM
OCc1cccc(-c2cncnc2)c1 [compound 504, (3‐pyrimidin‐5‐ylphenyl)methanol]	88.2	88.7 ± 9.9	
CC(=O)c1nccs1 [compound 79, 1‐(1,3‐thiazol‐2‐yl)ethan‐1‐one]	94.5	103 ± 16.6	
CC1(C)CC(=O)CC(C)(C)N1 [compound 228, 2,2,6,6‐tetramethyltetrahydro‐4(1H)‐pyridinone]			A549 Cells Alamar Blue (A549 cells): 61.9 percentage of controls; HeLa Cells Alamar Blue (HeLa cells; [2]): 101.3 ± 5.4 percentage of controls
Nc1cc(Cl)cc(Cl)c1 [compound 282, 3,5‐dichloroaniline]	66.5	86.4 ± 8.5	
NC(=O)Cc1ccc(F)cc1Cl [compound 519, 2‐(2‐chloro‐4‐fluorophenyl)acetamide]	102	98.3 ± 15.4	
Cc1ccc(C(N)=O)cc1C [compound 177, 3,4‐dimethylbenzamide]	64.2	81.7 ± 16.8	
N#CCCn1cccc1 [compound 50, 3‐(1H‐pyrrol‐1‐yl)propanenitrile]	140	75.4 ± 6.4	
O=C(O)c1ccc(-c2cccnc2)cc1 [compound 612, 4‐pyrid‐3‐ylbenzoic acid]	74.2		viability at 500 µM (HeLa cells; [3]): 77.2 ± 5.7%
O=C1CCOc2ccc(F)cc21 [compound 318, 6‐fluorochroman‐4‐one]	99	104 ± 16.4	
Clc1ccsc1 [compound 48, 3‐chlorothiophene]	101	95.5 ± 2	
Cc1nc2ccc(N)cc2s1 [compound 302, 2‐methyl‐1,3‐benzothiazol‐6‐ylamine]	62.3	71.9 ± 12.4	
O=C(O)C1COc2ccccc2C1 (centres unmarked) [compound 431, 3‐chromanecarboxylic acid]	95.8	102 ± 5.9	
Cc1cc(CN)no1 [compound 33, (5‐methyl‐3‐isoxazolyl)methylamine]	75.6	64.3 ± 18.4	
Oc1ccc(Oc2ccccc2)cc1 [compound 502, 4‐phenoxyphenol]	53.1		viability at 500 µM (HeLa cells; [3]): 39.6 ± 16.6%

Compound	viability at 500 µM (A549 cells) [%]	viability at 500 µM (HeLa cells; [1]) [%]	further results
CC12CCC(O)(CC1)CC2=O [compound 222, 4‐hydroxy‐1‐methylbicyclo[2.2.2]octan‐2‐one]			A549 Cells Alamar Blue (A549 cells): 82.3 percentage of controls; HeLa Cells Alamar Blue (HeLa cells; [2]): 101.8 ± 5.9 percentage of controls
N#Cc1ccccc1-n1cccc1 [compound 336, 2‐(1H‐pyrrol‐1‐yl)benzonitrile]	134	68.5 ± 16.3	
O=C(O)C1CCCNC1 (centres unmarked) [compound 91, 3-piperidinecarboxylic acid]	103		viability at 500 µM (HeLa cells; read-out: HeLa Cells Alamar Blue (% survival), compound 0.5 mM, percentage of controls): 76.6 ± 29.1%; viability at 500 µM (HeLa cells; [3]): 76.6 ± 29.1%
NCc1cccc(-n2cccc2)c1 [compound 364, 3‐(1H‐pyrrol‐1‐yl)benzylamine]	56.9	29.5 ± 12.9	CC50 (HeLa cells): 40.4 ± 1.8 µM
Cc1cc(C(F)(F)F)c(C#N)cn1 [compound 498, 6‐methyl‐4‐(trifluoromethyl)nicotinonitrile]			A549 Cells Alamar Blue (A549 cells): 107.7 percentage of controls; HeLa Cells Alamar Blue (HeLa cells; [2]): 102.9 ± 18.5 percentage of controls
CCCc1ccc(NC(C)=O)cc1 [compound 426, N1‐(4‐propylphenyl)acetamide]	71.7	89.8 ± 10.8	
ON=C1CN2CCC1CC2 [compound 416, quinuclidin‐3‐one oxime hydrochloride]	109	107 ± 9.6	
Nc1ccc(N2CCCCC2)cc1 [compound 413, 4‐piperidinoaniline]	53.2	11.6 ± 5.1	
OCc1nc2ccccc2s1 [compound 312, 1,3‐benzothiazol‐2‐ylmethanol]	64.4	80.7 ± 16.2	
Nc1ccc(Oc2ccccc2)nc1 [compound 507, 6‐phenoxy‐3‐pyridinamine]	71.8	103 ± 15.4	
CC(=O)Nc1ccc2c(c1)CCCC2=O [compound 644, N1‐(5‐oxo‐5,6,7,8‐tetrahydronaphthalen‐2‐yl)acetamide]			A549 Cells Alamar Blue (A549 cells): 93.5 percentage of controls; HeLa Cells Alamar Blue (HeLa cells; [2]): 99.2 ± 7.5 percentage of controls
COC(=O)c1ccccc1F [compound 220, methyl 2‐fluorobenzoate]	99.5	108 ± 17.6	
COC(=O)Cc1cccc(OC)c1 [compound 451, methyl 2‐(3‐methoxyphenyl)acetate]	93.2	101 ± 9.6	
NCc1cccc(CN2CCCCC2)c1 [compound 655, 3‐piperidin‐1‐ylmethyl benzylamine]	126	73.7 ± 15.9	
N#CN1CCCC1 [compound 3, pyrrolidine‐1‐carbonitrile]	115	88.5 ± 1.3	
N#Cc1cnccc1C(F)(F)F [compound 358, 4‐(trifluoromethyl)nicotinonitrile]	129	103 ± 1.7	
O=C(O)c1cc2ccccc2[nH]1 [compound 275, 1H‐indole‐2‐carboxylic acid]	67.3	89.7 ± 16.4	
OCc1ccc(-n2cccn2)cc1 [compound 385, [4‐(1H‐pyrazol‐1‐yl)phenyl]methanol]	118	83.4 ± 12.4	
OCc1ccc(-c2ccccn2)cc1 [compound 490, (4‐pyrid‐2‐ylphenyl)methanol]	118	102 ± 13.5	
CSc1ccccc1CN [compound 217, 2‐(methylthio)benzylamine]	70.3	27.1 ± 0.5	

Compound	viability at 500 µM (A549 cells) [%]	viability at 500 µM (HeLa cells; [1]) [%]	further results
Cn1nc(O)cc1C(F)(F)F [compound 316, 1‐methyl‐5‐(trifluoromethyl)‐1H‐pyrazol‐3‐ol]			A549 Cells Alamar Blue (A549 cells): 95.3 percentage of controls; HeLa Cells Alamar Blue (HeLa cells; [2]): 111.8 ± 17.2 percentage of controls
c1ccc(-c2cn3c(n2)SCC3)cc1 [compound 639, 6‐phenyl‐2,3‐dihydroimidazo[2,1‐b][1,3]thiazole]			A549 Cells Alamar Blue (A549 cells): 109.1 percentage of controls; HeLa Cells Alamar Blue (HeLa cells; [2]): 61 ± 9.8 percentage of controls
CCN(CC)CCc1ccccn1 [compound 443, N,N‐diethyl‐N‐[2‐(2‐pyridyl)ethyl]amine]	49.2	90.9 ± 9.8	
O=C(O)Cc1ccc(F)cc1 [compound 219, 2‐(4‐fluorophenyl)acetic acid]	98.4	94.3 ± 13.4	
CC12CCC(CC1=NO)C2(C)C (centres unmarked) [compound 332, 1,7,7‐trimethylbicyclo[2.2.1]heptan‐2‐one oxime]			A549 Cells Alamar Blue (A549 cells): 93.9 percentage of controls; HeLa Cells Alamar Blue (HeLa cells; [2]): 110.6 ± 8.3 percentage of controls
CC(=O)Nc1ccccc1F [compound 212, N1‐(2‐fluorophenyl)acetamide]	65.4	80.6 ± 6.6	
CNCc1cccnc1 [compound 57, N‐methyl‐N‐(3‐pyridylmethyl)amine]	79	89.3 ± 9.6	
Nc1nsc(-c2ccccc2)n1 [compound 424, 5‐phenyl‐1,2,4‐thiadiazol‐3‐amine]	60.1	62.2 ± 15.4	
CCOC(=O)Cc1ccc(N)cc1 [compound 446, ethyl 2‐(4‐aminophenyl)acetate]	63.2	80.1 ± 14.8	
Fc1ccc(N2CCNCC2)cc1 [compound 457, 1‐(4‐fluorophenyl)piperazine]	74.7	12.7 ± 10.1	
O=C(O)c1cccc2c1OCC2 [compound 297, 2,3‐dihydrobenzo[b]furan‐7‐carboxylic acid]			A549 Cells Alamar Blue (A549 cells): 74.9 percentage of controls; HeLa Cells Alamar Blue (HeLa cells; [2]): 78.8 ± 7.5 percentage of controls
Nc1ccc2[nH]ncc2c1 [compound 101, 1H‐indazol‐5‐amine]	70.6	31.7 ± 16.2	
Nc1ccccc1N [269a, benzene-1,2-diamine]			CC50 (HeLa cells): 32.9 ± 2.5 µM
Nc1ccc(Cl)cc1N [269c]			CC50 (HeLa cells): 224 ± 35 µM
Nc1ccc(Cl)c(F)c1 [269b]			CC50 (HeLa cells): 1400 ± 100 µM
Nc1ccccc1O [269e, 2-amino-phenol]			CC50 (HeLa cells): 68.2 ± 3.2 µM
COC(=O)C1NCCS1 (centres unmarked) [compound 44, methyl 1,3-thiazolane-2-carboxylate hydrochloride]	87		
Fc1cc2nc[nH]c2cc1Cl [269d]			CC50 (HeLa cells): 520 ± 52 µM
